Measured values from US6521751B1, “Recombinant nucleic acid sequences and methods for determining both genotoxicity and mutagenicity of a sample and the kinetics of the genotoxicity” (Vlaamse Instelling voor Technologisch Onderzoek (VITO), priority 1998, dated 2003).
Several values for one entry are separate records, joined by “and”; a condition that tells them apart may be missing. Equal entries are not always repeated. Where two headings read alike, the source gives them in different places.

Key:
S. typhimurium = conditions: cited from earlier work
E. coli (sfiA-lacZ) = conditions: cited from earlier work
[1] = system: TA 98 and TA104 strains containing pMOL1067 or pMOL1068
[2] = system: TA98 and TA104 strains containing pMOL890, pMOL1067 or pMOL1068; test: Test with the TA98 and TA104 strains containing pMOL890, pMOL1067 or pMOL1068
[3] = system: S. typhimurium TA104 containing pMOL1069
[4] = system: S. typhimurium TA98 containing pMOL890
[5] = system: S. typhimurium TA104 containing pMOL1067
[6] = system: S. typhimurium TA98 containing pMOL1068
[7] = system: S. typhimurium TA104 containing pMOL890
[8] = system: S. typhimurium TA104 containing pMOL1066
[9] = system: S. typhimurium TA104 containing pMOL1068
[10] = system: S. typhimurium TA98 containing pMOL1067
[11] = system: S. typhimurium TA100* containing pMOL890
[12] = system: S. typhimurium TA104* containing pMOL890
[13] = system: S. typhimurium TA98* containing pMOL890
[14] = system: novel biosensor systems in E. coli and in S. typhimurium strains; test: Subject SOS promoter-lux systems (general statements); conditions: for result in the novel systems according to the invention: agents known to give false negative results in the SOS chromotest and the Ames test
[15] = TA 98 and TA104 strains containing pMOL1067 or pMOL1068
[16] = SOS chromotest, literature values

S=C1NCCN1 [Ethylenethiourea]
AMES (result) (S. typhimurium): pos

COC(=O)N/N=C/c1c[n+]([O-])c2ccccc2[n+]1[O-] [Carbadox]
AMES (result) (S. typhimurium; Ames test, Table 3): pos
SOS (result) (E. coli (sfiA-lacZ); SOS chromotest, Table 3): pos
OUTCOME (genotoxicity, final outcome) [1, 15]: pos

4-nitroquinoline-N-oxyde [4-NQO]
MINIMAL DETECTED CONCENTRATION (MDC) (E. coli (sfiA-lacZ)): 0.006 nmol/assay
SOS (result) (E. coli (sfiA-lacZ)): pos
OUTCOME (genotoxicity, final outcome) [1]: pos

O=P1(N(CCCl)CCCl)NCCCO1 (centres unmarked) [Cyclophosphamide]
AMES (result) (S. typhimurium): pos
SOS (result) (E. coli (sfiA-lacZ)): neg
result in the test (genotoxicity) [2]: negative
OUTCOME (genotoxicity, final outcome) [1]: neg

COc1ccc2nc3cc(Cl)ccc3c(NCCCNCCCl)c2c1 [ICR191]
AMES (result) (S. typhimurium): pos
MINIMAL DETECTED CONCENTRATION (MDC) (S. typhimurium): pos
MINIMAL DETECTED CONCENTRATION (MDC) (E. coli (sfiA-lacZ)): 0.13 nmol/assay
SOS (result) (E. coli (sfiA-lacZ)): pos
MINIMAL DETECTED CONCENTRATION (MDC) ([3]; Salmonella typhimurium): 1.1 nmol/assay
MINIMAL DETECTED CONCENTRATION (MDC) ([4]; Salmonella typhimurium): 0.14 nmol/assay
MINIMAL DETECTED CONCENTRATION (MDC) ([5]; Salmonella typhimurium): 0.55 nmol/assay
MINIMAL DETECTED CONCENTRATION (MDC) ([6]; Salmonella typhimurium): 0.14 nmol/assay
OUTCOME (genotoxicity, final outcome) [1]: pos
MINIMAL DETECTED CONCENTRATION (MDC) ([7]; Salmonella typhimurium): 0.14 nmol/assay
MINIMAL DETECTED CONCENTRATION (MDC) ([8]; Salmonella typhimurium): 1.1 nmol/assay
MINIMAL DETECTED CONCENTRATION (MDC) ([9]; Salmonella typhimurium): 0.55 nmol/assay
MINIMAL DETECTED CONCENTRATION (MDC) ([10]; Salmonella typhimurium): 0.28 nmol/assay

c1ccc2c(c1)cc1ccc3cccc4ccc2c1c34 [BαP, benzo-α-pyrene]
Number of His^+ revertants ([11]; BαP 10 mmol + S9): 67 and 80
Number of His^+ revertants ([11]; BαP 50 mmol + S9): 64 and 54
Number of His^+ revertants ([11]; BαP 50 mmol − S9): 15 and 11
Number of His^+ revertants ([11]; BαP 200 mmol + S9): 59 and 58
Number of His^+ revertants ([11]; BαP 600 mmol + S9): 74 and 73
Number of His^+ revertants ([11]; BαP 600 mmol − S9): 6 and 3
SOS (result) (E. coli (sfiA-lacZ); SOS chromotest, Table 3): pos
MINIMAL DETECTED CONCENTRATION (MDC) (E. coli (sfiA-lacZ); [16]): 0.7 nmol/assay
Number of His^+ revertants ([12]; BαP 50 mmol + S9): 82 and 85
Number of His^+ revertants ([12]; BαP 50 mmol − S9): 29 and 27
Number of His^+ revertants ([12]; BαP 200 mmol + S9): 87
Number of His^+ revertants ([12]; BαP 200 mmol − S9): 26 and 32
Number of His^+ revertants ([12]; BαP 600 mmol + S9): 57 and 69
Number of His^+ revertants ([12]; BαP 600 mmol − S9): 21 and 19
MINIMAL DETECTED CONCENTRATION (MDC) ([3]; TA104 pMOL1069): 0.16 nmol/assay
MINIMAL DETECTED CONCENTRATION (MDC) ([4]; TA98 pMOL890): 1.59 nmol/assay
MINIMAL DETECTED CONCENTRATION (MDC) ([5]; TA104 pMOL1067): 0.079 nmol/assay
MINIMAL DETECTED CONCENTRATION (MDC) ([6]; TA98 pMOL1068): 0.16 nmol/assay
OUTCOME (genotoxicity, final outcome) [1, 15]: pos
MINIMAL DETECTED CONCENTRATION (MDC) ([7]; TA104 pMOL890): 0.32 nmol/assay
MINIMAL DETECTED CONCENTRATION (MDC) ([8]; TA104 pMOL1066): 0.16 nmol/assay
MINIMAL DETECTED CONCENTRATION (MDC) ([9]; TA104 pMOL1068): 0.16 nmol/assay
MINIMAL DETECTED CONCENTRATION (MDC) ([10]; TA98 pMOL1067): 0.16 nmol/assay
Number of His^+ revertants ([13]; BαP 10 mmol + S9): 24
Number of His^+ revertants ([13]; BαP 50 mmol − S9): 0
Number of His^+ revertants ([13]; BαP 200 mmol + S9): 49 and 50
Number of His^+ revertants ([13]; BαP 200 mmol − S9): 0
Number of His^+ revertants ([13]; BαP 600 mmol + S9): 29 and 33
Number of His^+ revertants ([13]; BαP 600 mmol − S9): 0

c1ccc2cc3ccccc3cc2c1 [Anthracene]
AMES (result) (S. typhimurium): neg
SOS (result) (E. coli (sfiA-lacZ); SOS chromotest, Table 3): neg
OUTCOME (genotoxicity, final outcome) [1, 15]: neg

CCN(CC)N=O [N-Nitrosodiethylamine]
AMES (result) (S. typhimurium): pos
SOS (result) (E. coli (sfiA-lacZ); SOS chromotest, Table 3): pos
OUTCOME (genotoxicity, final outcome) [1, 15]: pos

[Cl][Cd][Cl] [CdCl2]
AMES (result) (S. typhimurium): neg
MINIMAL DETECTED CONCENTRATION (MDC) (S. typhimurium): neg
MINIMAL DETECTED CONCENTRATION (MDC) (E. coli (sfiA-lacZ)): neg
SOS (result) (E. coli (sfiA-lacZ)): neg
MINIMAL DETECTED CONCENTRATION (MDC) [3]: neg
MINIMAL DETECTED CONCENTRATION (MDC) [4]: neg
MINIMAL DETECTED CONCENTRATION (MDC) [5]: neg
MINIMAL DETECTED CONCENTRATION (MDC) [6]: neg
OUTCOME (genotoxicity, final outcome) [1]: neg
MINIMAL DETECTED CONCENTRATION (MDC) [7]: neg
MINIMAL DETECTED CONCENTRATION (MDC) [8]: neg
MINIMAL DETECTED CONCENTRATION (MDC) [9]: neg
MINIMAL DETECTED CONCENTRATION (MDC) [10]: neg

CN(Cc1cnc2nc(N)nc(N)c2n1)c1ccc(C(=O)N[C@@H](CCC(=O)O)C(=O)O)cc1 [Methotrexate]
AMES (result) (S. typhimurium; Ames test, Table 3): pos
SOS (result) (E. coli (sfiA-lacZ); SOS chromotest, Table 3): pos
OUTCOME (genotoxicity, final outcome) [1, 15]: pos

CNC(=O)Oc1cccc2ccccc12 [Carbaryl]
SOS (result) (E. coli (sfiA-lacZ)): pos

CCn1cc(C(=O)O)c(=O)c2ccc(C)nc21 [Nalidixic acid]
AMES (result) (S. typhimurium): neg
result in the Ames test (S. typhimurium): False-negative
result in the novel systems according to the invention [14]: positive
result in the test (genotoxicity) [2]: positive
OUTCOME (genotoxicity, final outcome) [1, 15]: pos

NN [Hydrazine]
AMES (result) (S. typhimurium): pos
SOS (result) (E. coli (sfiA-lacZ); SOS chromotest, Table 3): pos
OUTCOME (genotoxicity, final outcome) [1, 15]: pos

Cl[C@H]1[C@H](Cl)[C@@H](Cl)[C@@H](Cl)[C@H](Cl)[C@H]1Cl [Lindane]
AMES (result) (S. typhimurium): neg
SOS (result) (E. coli (sfiA-lacZ); SOS chromotest, Table 3): neg
OUTCOME (genotoxicity, final outcome) [1, 15]: neg

c1cc2ccc3cccc4ccc(c1)c2c34 [Pyrene]
AMES (result) (S. typhimurium): neg
result in the Ames test (S. typhimurium): False-negative
result in the novel systems according to the invention [14]: positive
result in the test (genotoxicity) [2]: positive
OUTCOME (genotoxicity, final outcome) [1, 15]: pos

[N-]=[N+]=[N-] [Sodiumazide]
AMES (result) (S. typhimurium): pos
SOS (result) (E. coli (sfiA-lacZ); SOS chromotest, Table 3): neg
result in the SOS chromotest (E. coli (sfiA-lacZ); text b126): negative
result in the novel systems according to the invention [14]: positive
result in the test (genotoxicity) [2]: positive
OUTCOME (genotoxicity, final outcome) [1, 15]: pos

O=C(N/N=C/c1ccc([N+](=O)[O-])o1)c1ccc(O)cc1 [Nifuroxazide]
AMES (result) (S. typhimurium; Ames test, Table 3): pos
OUTCOME (genotoxicity, final outcome) [1, 15]: pos

CCCCCCCCCCCCOS(=O)(=O)[O-].[Na+] [Sodium Dodecyl Sulphate]
AMES (result) (S. typhimurium; Ames test, Table 3): neg
OUTCOME (genotoxicity, final outcome) [1, 15]: neg

CCOS(C)(=O)=O [Ethylmethanesulphonate]
AMES (result) (S. typhimurium): pos
SOS (result) (E. coli (sfiA-lacZ)): pos
OUTCOME (genotoxicity, final outcome) [1]: pos

ClCC1CO1 (centres unmarked) [Epichlorohydrine]
AMES (result) (S. typhimurium): pos
SOS (result) (E. coli (sfiA-lacZ)): pos
OUTCOME (genotoxicity, final outcome) [1]: pos

c1ccc2c(c1)ccc1c3ccccc3ccc21 [chrysene]
AMES (result) (S. typhimurium): pos
MINIMAL DETECTED CONCENTRATION (MDC) (S. typhimurium): pos
SOS (result) (E. coli (sfiA-lacZ); SOS chromotest, Table 3): pos
MINIMAL DETECTED CONCENTRATION (MDC) (E. coli (sfiA-lacZ); [16]): 11 nmol/assay
MINIMAL DETECTED CONCENTRATION (MDC) ([3]; TA104 pMOL1069): 0.55 nmol/assay
MINIMAL DETECTED CONCENTRATION (MDC) ([4]; TA98 pMOL890): 2.2 nmol/assay
MINIMAL DETECTED CONCENTRATION (MDC) ([5]; TA104 pMOL1067): 0.55 nmol/assay
MINIMAL DETECTED CONCENTRATION (MDC) ([6]; TA98 pMOL1068): 5.5 nmol/assay
OUTCOME (genotoxicity, final outcome) [1, 15]: pos
MINIMAL DETECTED CONCENTRATION (MDC) ([7]; TA104 pMOL890): 2.2 nmol/assay
MINIMAL DETECTED CONCENTRATION (MDC) ([8]; TA104 pMOL1066): 1.095 nmol/assay
MINIMAL DETECTED CONCENTRATION (MDC) ([9]; TA104 pMOL1068): 1.095 nmol/assay
MINIMAL DETECTED CONCENTRATION (MDC) ([10]; TA98 pMOL1067): 5.5 nmol/assay

c1ccc2ccccc2c1 [Naphtalene]
SOS (result) (E. coli (sfiA-lacZ)): neg
OUTCOME (genotoxicity, final outcome) [1]: neg

CO[C@@]12[C@H](COC(N)=O)C3=C(C(=O)C(C)=C(N)C3=O)N1C[C@@H]1N[C@@H]12 [Mitomycin C]
level that can be detected ([14]; subject systems): 7 ng/mL

Oc1c(Cl)c(Cl)c(Cl)c(Cl)c1Cl [Pentachlorophenole]
SOS (result) (E. coli (sfiA-lacZ)): pos

[Cl-].[Cl-].[Zn+2] [ZnCl2]
AMES (result) (S. typhimurium): neg
SOS (result) (E. coli (sfiA-lacZ)): neg
OUTCOME (genotoxicity, final outcome) [1]: neg
